Reference: patent US10792282B2, “Protein kinase C inhibitors and uses thereof” (Rigel Pharmaceuticals, Inc., priority 2013, dated 2020)
pEC50: −log10 of the molar value. Like-named read-outs stand apart in the source and are kept apart here.

Tested on: PKC mediated IL-2 production
Assay: IL-2 ELISA, human primary T cell, anti CD3+CD28+ (whole cell functional assay)
Format: cell-based
Method: Human primary T cells were prepared as follows. Fresh PBMC's from All Cells (Cat # PB002) were re-suspended in RPMI (RPMI-1640 with L-Glutamine; Mediatech, Inc., Herndon Va., cat. #10-040-CM) with 10% FBS and seeded into flasks and incubated at 37° C. for 2 hours to allow the monocytes to adhere. The non-adherent cells were then centrifuged and re-suspended in RPMI medium containing 40 U/ml IL2 and seeded into a flask pre-coated with 1 μg/ml aCD3 and 5 ug/ml aCD28 (Anti-Human CD3, BD Pharmingen Catalog #555336, Anti-Human CD28, Beckman Coulter Catalog # IM1376). The cells were stimulated for 3-4 days, then transferred to a fresh flask and maintained in RPMI (RPMI-1640 with L-Glutamine; Mediatech, Inc., Herndon Va., cat. #10-040-CM) with 10% FBS and 40 U/ml IL-2.
(§1) Human primary T cells (100,000 cells per well) were pre-incubated with or without test compound in RPMI-1640 with L-Glutamine and 10% FBS for 1 hour at 37° C. Cells were then stimulated by transferring them to round-bottom 96-well plates pre-coated with 1 μg/ml αCD3 and 5 μg/ml αCD28. For counter assay, cells were instead stimulated by adding 8× stock solutions of PMA and ionomycin in RPMI-1640 with L-Glutamine and 10% FBS (for final concentrations of 0.5 ng/ml PMA and 0.1 μM ionomycin, both from Calbiochem). Cells were incubated at 37° C. for 24 hours before 100 μL supernatants were harvested for quantification of IL-2 by ELISA using Human IL-2 Duoset ELISA Kit from R and D Systems, Cat. # DY202E.
Compounds 1-90 were tested in a whole cell functional assay for PKC mediated IL-2 production as follows. Human primary T cell isolation and culture: Human primary T cells were prepared as follows. Whole blood was obtained from a healthy volunteer, mixed 1:1 with PBS, layered on to Ficoll Hypaque (Amersham Pharmacia Biotech, Piscataway, N.J., Catalog #17-1440-03) in 2:1 blood/PBS:ficoll ratio and centrifuged for 30 minutes at 4° C. at 1750 rpm. The cells at the serum: ficoll interface were recovered and washed twice with 5 volumes of PBS. These freshly isolated human peripheral blood mononuclear cells were cultured in Yssel's medium containing 40 U/ml IL2 in a flask pre-coated with 1 μg/ml αCD3 and 5 μg/ml αCD28 (Anti-Human CD3, BD Pharmingen Catalog #555336, Anti-Human CD28, Beckman Coulter Catalog # IM1376). The cells were stimulated for 3-4 days, then transferred to a fresh flask and maintained in RPMI (RPMI-1640 with L-Glutamine; Mediatech, Inc., Herndon Va., cat. #10-040-CM) with 10% FBS and 40 U/ml IL-2. The primary T-cells were then washed twice with PBS to remove the IL-2.
as §1, with “Primary T cell stimulation and IL2 ELISA: Human primary” for “Human primary”, “compound in Yssel's medium for 1” for “compound in RPMI-1640 with L-Glutamine and 10% FBS for 1”, “ionomycin in Yssels (for final” for “ionomycin in RPMI-1640 with L-Glutamine and 10% FBS (for final”, “and 0.1 uM ionomycin, both” for “and 0.1 μM ionomycin, both”

[1] = IL-2 production, human primary T cells stimulated with αCD3 and αCD28, 24 hours, IL-2 by ELISA, read-out: EC50
[2] = Homo sapiens, T-cell, 24 h, IL-2 production, human primary T cells stimulated with αCD3 and αCD28, 24 hours, IL-2 by ELISA, read-out: EC50
[3] = Homo sapiens, T-cell, human primary T cells stimulated with αCD3 and αCD28, IL-2 by ELISA, read-out: EC50 (blocked IL-2 production)

| SMILES | pEC50 [1] | pEC50 [2] | pEC50 [3] | also measured |
| --- | --- | --- | --- | --- |
| CC(C)N1CCC(Oc2ccc(Nc3ncc(F)c(NC4CC5CCCN5C(C)(C)C4)n3)cc2OC(F)F)CC1 (centres unmarked) [Compound 9, (R/S, S/R, R/R, S/S)—N^2-(4-(1-isopropylpiperidin-4-yloxy)-3-(difluoromethoxy)phenyl)-5-fluoro-N^4-(octahydro-5,5-dimethylindolizin-7-yl)pyrimidine-2,4-diamine] | > 6.30 | – | – | – |
| Cn1nnn(-c2cc(Nc3ncc(F)c(N[C@H]4CCN5[C@@H](CCC5(C)C)C4)n3)c(F)cc2C2CC2)c1=O (single isomer, unassigned) [Compound 37] | > 5.00 | – | – | – |
| Cn1nnn(-c2cc(Nc3ncc(C#N)c(N[C@@H]4C[C@@H]5CCCN5C(C)(C)C4)n3)ccc2OC(C)(C)CO)c1=O [Compound 83, 4-((7R,8aS)-octahydro-5,5-dimethylindolizin-7-ylamino)-2-(4-(1-hydroxy-2-methylpropan-2-yloxy)-3-(4,5-dihydro-4-methyl-5-oxotetrazol-1-yl)phenylamino)pyrimidine-5-carbonitrile] | – | > 7.00 | > 5.00 | – |
| Cn1nnn(-c2cc(Nc3ncc(F)c(NC4CC5CCCN5C(C)(C)C4)n3)ccc2OC2COC2)c1=O (single isomer, unassigned) [Compound 39, 1-(5-(5-fluoro-4-(octahydro-5,5-dimethylindolizin-7-ylamino)pyrimidin-2-ylamino)-2-(oxetan-3-yloxy)phenyl)-4-methyl-1H-tetrazol-5(4H)-one] | > 6.30 | – | > 5.00 | – |
| CC1(C)CC(Nc2nc(Nc3ccc(O[C@H]4CCOC4)c(C#N)c3)ncc2F)CC2CCCN21 (single isomer, unassigned) [Compound 62] | > 6.30 | – | – | – |
| C[C@H](O)COc1cc(F)c(Nc2ncc(C#N)c(N[C@@H]3C[C@@H]4CCCN4C(C)(C)C3)n2)cc1-n1nnn(C)c1=O [Compound 79, 4-((7R,8aS)-octahydro-5,5-dimethylindolizin-7-ylamino)-2-(4-((S)-2-hydroxypropoxy)-2-fluoro-5-(4,5-dihydro-4-methyl-5-oxotetrazol-1-yl)phenylamino)pyrimidine-5-carbonitrile] | – | > 7.00 | > 5.00 | – |
| Cn1nnn(-c2cc(Nc3ncc(C#N)c(N[C@@H]4CC5CCCN5C(C)(C)C4)n3)c(F)cc2C2CC2)c1=O (some centres unmarked) [Compound 76] | – | > 7.00 | > 5.00 | – |
| Cn1nnn(-c2cc(Nc3ncc(F)c(NC4CCN5CCCC5C4)n3)c(F)cc2C2CC2)c1=O (centres unmarked) [Compound 29] | > 5.00 | – | – | – |
| CC1(C)CC(Nc2nc(Nc3ccc(O[C@@H]4CCOC4)c(C#N)c3)ncc2F)CC2CCCN21 (stereo partly drawn) [Compound 57, 2-((R)-tetrahydrofuran-3-yloxy)-5-(5-fluoro-4-(octahydro-5,5-dimethylindolizin-7-ylamino)pyrimidin-2-ylamino)benzonitrile] | – | > 6.30 | > 5.00 | – |
| Fc1cc(C2CC2)c(-n2cnnn2)cc1Nc1ncc(F)c(NC2CCN3CCCC3C2)n1 (racemic) [Compound 24, (±)-N^2-(4-cyclopropyl-2-fluoro-5-(1H-tetrazol-1-yl)phenyl)-5-fluoro-n^4-(octahydroindolizin-7-yl)pyrimidine-2,4-diamine] | – | > 6.30 | > 5.00 | – |
| C[C@@H](O)COc1cc(F)c(Nc2ncc(F)c(N[C@@H]3C[C@@H]4CCCN4C(C)(C)C3)n2)cc1-n1nnn(C)c1=O [Compound 82, 1-(5-(4-((7R,8aS)-5,5-dimethyloctahydroindolizin-7-ylamino)-5-fluoropyrimidin-2-ylamino)-4-fluoro-2-((R)-2-hydroxypropoxy)phenyl)-4-methyl-1H-tetrazol-5(4H)-one] | – | – | – | pEC50 (T-cell, IL-2 production, human primary T cells stimulated with αCD3 and αCD28, 24 hours, IL-2 by ELISA, read-out: EC50): > 7.00; pEC50 (T-cell, human primary T cells stimulated with αCD3 and αCD28, IL-2 by ELISA, read-out: EC50 (blocked IL-2 production)): > 5.00 |
| Cn1nnn(-c2cc(Nc3ncc(F)c(N[C@@H]4C[C@@H]5CC(F)(F)CN5C(C)(C)C4)n3)c(F)cc2C2CC2)c1=O [Compound 45, 1-(5-(4-((7R,8aR)-2,2-difluoro-octahydro-5,5-dimethylindolizin-7-ylamino)-5-fluoropyrimidin-2-ylamino)-2-cyclopropyl-4-fluorophenyl)-4-methyl-1H-tetrazol-5(4H)-one] | – | > 5.00 | > 5.00 | – |
| Cn1nnn(-c2cc(Nc3ncc(F)c(N[C@@H]4C[C@@H]5CCCN5C(C)(C)C4)n3)ccc2OC(C)(C)CO)c1=O [Compound 86, 1-(2-(1-hydroxy-2-methylpropan-2-yloxy)-5-(4-((7R,8aS)-octahydro-5,5-dimethylindolizin-7-ylamino)-5-fluoropyrimidin-2-ylamino)phenyl)-4-methyl-1H-tetrazol-5(4H)-one] | – | > 7.00 | > 5.00 | – |
| Cn1nnn(-c2cc(Nc3ncc(F)c(N[C@H]4C[C@@H]5CC(F)(F)CN5C(C)(C)C4)n3)c(F)cc2C2CC2)c1=O [Compound 42, 1-(5-(4-((7S,8aR)-2,2-difluoro-octahydro-5,5-dimethylindolizin-7-ylamino)-5-fluoropyrimidin-2-ylamino)-2-cyclopropyl-4-fluorophenyl)-4-methyl-1H-tetrazol-5(4H)-one] | – | > 5.00 | > 5.00 | – |
| Cn1nnn(-c2cc(Nc3ncc(F)c(N[C@H]4C[C@H]5CCCN5C(C)(C)C4)n3)c(F)cc2C2CC2)c1=O [Compound 18, 1-(5-(4-((7S,8aR)-octahydro-5,5-dimethylindolizin-7ylamino)-5-fluoropyrimidin-2-ylamino)-2-cyclopropyl-4-fluorophenyl)-4-methyl-1H-tetrazol-5(4H)-one] | – | > 6.00 | > 5.00 | – |
| CC(C)N1CCC(Oc2ccc(Nc3ncc(F)c(NC4CC5CCCN5C(C)(C)C4)n3)cc2OC(F)F)CC1 (centres unmarked) [Compound 7, (R/S, S/R, R/R, S/S)—N^2-(4-(1-isopropylpiperidin-4-yloxy)-3-(difluoromethoxy)phenyl)-5-fluoro-N^4-(octahydro-5,5-dimethylindolizin-7-yl)pyrimidine-2,4-diamine] | > 5.00 | – | – | – |
| COc1cc(F)c(Nc2ncc(F)c(N[C@@H]3C[C@@H]4CCCN4C(C)(C)C3)n2)cc1-n1nnn(C)c1=O [Compound 22, 1-(5-(4-((7R,8aS)-5,5-dimethyl-octahydroindolizin-7-ylamino)-5-fluoropyrimidin-2-ylamino)-4-fluoro-2-methoxyphenyl)-4-methyl-1H-tetrazol-5(4H)-one] | – | > 6.30 | > 5.00 | – |
| CC(C)N1CCC(Oc2ccc(Nc3ncc(F)c(NC4CC5CCCN5C(C)(C)C4)n3)cc2OC(F)F)CC1 (centres unmarked) [Compound 6, (R/S, S/R, R/R, S/S)—N^2-(4-(1-isopropylpiperidin-4-yloxy)-3-(difluoromethoxy)phenyl)-5-fluoro-N^4-(octahydro-5,5-dimethylindolizin-7-yl)pyrimidine-2,4-diamine] | > 6.30 | – | – | – |
| Cn1nnn(-c2cc(Nc3ncc(C#N)c(N[C@@H]4C[C@@H]5CCCN5C(C)(C)C4)n3)c(F)cc2OCC(C)(C)O)c1=O [Compound 80, 4-((7R,8aS)-octahydro-5,5-dimethylindolizin-7-ylamino)-2-(4-(2-hydroxy-2-methylpropoxy)-2-fluoro-5-(4,5-dihydro-4-methyl-5-oxotetrazol-1-yl)phenylamino)pyrimidine-5-carbonitrile] | – | > 7.00 | > 5.00 | – |
